The values below are quoted from earlier work in patent US20120071440A1, “Pharmaceutical Composition For Enhancing Adiponectin Production And Food Useful Therefor” (priority 2009, published 2012).

This series relates to adiponectin. Conditions: reported in Diabetes Research and Clinical Practice 2004.

With `Cn1c(=O)c2c(ncn2C)n(C)c1=O` [caffeine], the adiponectin production entry is listed as “capable of producing adiponectin, but this effect is not large”.
